According to article PMC11600510 (Journal of Chemical Information and Modeling, 2024):

Columns and labels:
CYP450 system = assay: Isozyme-specific CYP450 study, overall statement; assay type: in vitro ADME, human; details: 1 μM
Protocol: For this, the activity of CYP1A2, CYP2A6, CYP2B6, CYP2C9, CYP2C19, CYP2D6, and CYP3A4 was assessed after the administration of CKP-25 at 1 μM to determine (a) the oxidative (CYP-mediated) metabolic stability profile in question and (b) the enzyme metabolizing isoforms responsible (the test system consists of recombinant human CYP450 and CYP450 reductase; cytochrome b5 may also be present). Herein, no concentration-dependent effects were reported. […] No product inhibition or mechanism-based inactivation of the CYP450 isoenzymes in question was obtained. […]
Human cytochrome P450 (CYP450) isoenzymes were expressed in Baculosomes obtained from Thermo Fisher Scientific (Waltham, MA, USA). […] Compound CKP-25 was evaluated at a concentration of 1 μM according to our established standard operating procedures and protocols as described previously.[127],[128] The enzymatic activity of various CYP450 isoforms (CYP1A2, CYP2A6, CYP2B6, CYP2C9, CYP2C19, CYP2D6, and CYP3A4) was measured, considering the kinetic model for each isoform. […] Upon the addition of the fluorescent substrate, signal monitoring was performed immediately (within 2 min) using appropriate excitation and emission wavelengths, recorded by an Agilent BioTek Lionheart FX (Winooski, VT, USA). CYP450 inhibition (%) was calculated based on the reaction rates (fluorescence intensity changes per unit time). […]

SARS-CoV-2 [1] = assay type: cell-based
[2] = target: T1, Spike RBD/ACE2 (19–615) interaction (Severe acute respiratory syndrome coronavirus 2, UniProt P0DTC2); assay: cell-based; assay type: cell-based, SARS-CoV-2; details: HEK-293T, 48 h, read-out: suppression of Spike RBD/ACE2 (19–615) interaction
T1 construct: S protein RBD (aa residues 319–541) of SARS-CoV-2; expressed in transfected cells; host or cells: HEK293T

SARS-CoV-2 [3] = assay: microbe, parasite or virus in culture; assay type: cell-based
SARS-CoV-2 [4] = assay type: cell-based; remark: listed apart in the source
[5] = Metabolic stability in human liver microsomes; assay type: in vitro ADME
From the text: CKP-25 was studied for its metabolic stability. In particular, the metabolic stability of a compound can be interpreted using several approaches, as it can be ranked in terms of its intrinsic clearance (CLint) and in vitro t1/2 values or based on parent structure loss during metabolic reactions[96],[97] CLin describes the maximum activity of liver (microsomal proteins or hepatocytes) toward a compound not influenced by other physiological determinants, such as hepatic blood flow and drug binding within the blood matrix and in vitro t1/2 expresses the time for 50% disappearance of the compound. Parent structure loss was our option for metabolic stability data interpretation of CKP-25. Parent structure loss is classified as very slow (<5%), slow (5–19%), moderate (20–50%), fast (50–80%) or very fast (>80%). Such categories have been defined according to set criteria, namely, high metabolism (t1/2 value of <30 min), moderate metabolism (30 min < t1/2 value of <60 min) and low metabolism (t1/2 value of >60 min).[98]−[100]
Metabolic stability was evaluated using pooled human liver microsomes at a 0.5 mg/mL concentration. […] Each test-compound was assessed at a concentration of 1 μM. […] The depletion of test compounds was then profiled, and the residual percentage compared to time zero was determined. The readouts were recorded using a Lionheart FX system from Agilent BioTek (Winooski, VT, USA).

CYP2D6 = target: T2, CYP2D6 (Homo sapiens, UniProt P10635); assay: Isozyme-specific CYP450 inhibition; assay type: in vitro ADME; details: recombinant human CYP2D6 with CYP450 reductase (Baculosomes), probe fluorescent substrate (not named)
T2 construct: purchased Thermo Fisher Scientific; host or cells: Baculosomes
Protocol: (§1) For this, the activity of CYP1A2, CYP2A6, CYP2B6, CYP2C9, CYP2C19, CYP2D6, and CYP3A4 was assessed after the administration of CKP-25 at 1 μM to determine (a) the oxidative (CYP-mediated) metabolic stability profile in question and (b) the enzyme metabolizing isoforms responsible (the test system consists of recombinant human CYP450 and CYP450 reductase; cytochrome b5 may also be present). Herein, no concentration-dependent effects were reported. […] No product inhibition or mechanism-based inactivation of the CYP450 isoenzymes in question was obtained. Test-compounds with poor solubility can show artificially low CYP450 inhibition and thus, chemical entities with potential drug–drug interaction toxicities may be overlooked.
(§2) Human cytochrome P450 (CYP450) isoenzymes were expressed in Baculosomes obtained from Thermo Fisher Scientific (Waltham, MA, USA). Reagents were handled and prepared following the manufacturer’s guidelines. Compound CKP-25 was evaluated at a concentration of 1 μM according to our established standard operating procedures and protocols as described previously.[127],[128] The enzymatic activity of various CYP450 isoforms (CYP1A2, CYP2A6, CYP2B6, CYP2C9, CYP2C19, CYP2D6, and CYP3A4) was measured, considering the kinetic model for each isoform. The reactions were conducted in triplicate at 20 °C. NADP+ (10 mM in 100 mM potassium phosphate, pH 8.0) was converted to NADPH using a regeneration system containing glucose-6-phosphate (333 mM) and glucose-6-phosphate dehydrogenase (30 U/mL in 100 mM potassium phosphate, pH 8.0). Upon the addition of the fluorescent substrate, signal monitoring was performed immediately (within 2 min) using appropriate excitation and emission wavelengths, recorded by an Agilent BioTek Lionheart FX (Winooski, VT, USA). CYP450 inhibition (%) was calculated based on the reaction rates (fluorescence intensity changes per unit time). In total, n = 60 meaurements per minute were recorded over a 60 min period. [drawing 2] where X, the rate observed in the presence of a test-compound; A, the rate observed in the presence of negative (solvent, DMSO) control.

CYP3A4 = target: T3, CYP3A4 (Homo sapiens, UniProt P08684); assay: Isozyme-specific CYP450 inhibition; assay type: in vitro ADME; details: recombinant human CYP3A4 with CYP450 reductase (Baculosomes), probe fluorescent substrate (not named)
T3 construct: purchased Thermo Fisher Scientific; host or cells: Baculosomes
Protocol: as §1, §2

T2 sequence (P10635 whole entry): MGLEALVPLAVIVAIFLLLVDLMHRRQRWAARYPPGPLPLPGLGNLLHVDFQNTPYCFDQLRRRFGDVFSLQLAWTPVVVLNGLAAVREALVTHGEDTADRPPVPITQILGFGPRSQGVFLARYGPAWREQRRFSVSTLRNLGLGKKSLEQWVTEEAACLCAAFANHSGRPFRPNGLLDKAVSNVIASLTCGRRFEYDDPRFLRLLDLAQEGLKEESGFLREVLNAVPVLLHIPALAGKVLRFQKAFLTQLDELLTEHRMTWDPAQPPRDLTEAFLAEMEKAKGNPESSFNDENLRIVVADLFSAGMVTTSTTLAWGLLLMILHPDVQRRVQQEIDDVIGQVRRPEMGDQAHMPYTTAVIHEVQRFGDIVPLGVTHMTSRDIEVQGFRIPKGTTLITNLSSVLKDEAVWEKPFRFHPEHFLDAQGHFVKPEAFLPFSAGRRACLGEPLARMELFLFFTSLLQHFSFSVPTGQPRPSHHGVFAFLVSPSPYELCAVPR
T3 sequence (P08684 2-503 limits assumed): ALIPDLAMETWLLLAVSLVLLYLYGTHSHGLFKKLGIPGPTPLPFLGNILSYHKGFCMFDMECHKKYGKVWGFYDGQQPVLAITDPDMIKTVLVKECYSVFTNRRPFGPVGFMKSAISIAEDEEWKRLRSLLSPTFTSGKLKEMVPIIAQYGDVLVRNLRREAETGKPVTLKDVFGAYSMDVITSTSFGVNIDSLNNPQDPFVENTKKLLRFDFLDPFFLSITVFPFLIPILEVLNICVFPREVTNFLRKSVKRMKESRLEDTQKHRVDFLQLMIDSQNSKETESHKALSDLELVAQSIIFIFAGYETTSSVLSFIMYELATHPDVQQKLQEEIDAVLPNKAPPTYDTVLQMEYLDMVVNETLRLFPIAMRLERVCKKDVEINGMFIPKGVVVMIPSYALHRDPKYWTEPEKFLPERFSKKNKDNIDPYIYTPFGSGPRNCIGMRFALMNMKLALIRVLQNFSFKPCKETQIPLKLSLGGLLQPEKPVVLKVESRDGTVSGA

COc1cccc2c1ncn2Cc1ccc2ccccc2c1 [CKP-25, 4-Methoxy-1-(naphthalen-2-ylmethyl)-1H-benzo[d]imidazole]
inhibition of the CYP450 system (in words) (CYP450 system): weak inhibitor | solubility issues in the CYP450 assay (CYP450 system): No solubility issues | effect on viral load in the cell culture supernatant (in words) (SARS-CoV-2 [1]): reduced the viral load | inhibition at 25 µM [2]: 34% | effect on the cytopathic effect of SARS-CoV-2 (in words) (SARS-CoV-2 [3]): consistently reduced the cytopathic effect | IC50 (SARS-CoV-2 [3]; Severe acute respiratory syndrome coronavirus 2, Vero C1008, 48 h, read-out: IC50, SARS-CoV-2 CPE): 3.5 µM | reduction of the viral titter (TCID50) (SARS-CoV-2 [4]): approximately 90% | substrate depletion (in words) [5]: slow substrate depletion | inhibition at 60 min, 1 µM (CYP2D6): 1% | inhibition at 60 min, 1 µM (CYP3A4): 3%
